The values below come from patent EP2876156A1 (COMMISSARIAT A L'ENERGIE ATOMIQUE ET AUX ENERGIES …, priority 2013, dated 2015).

Test [1] concerns the target T1, ENZ1 (SEQ ID NO:1) (Catenulispora acidiphila, UniProt C7QJ42).
T1 construct: His6 (hexahistidine, inserted after the initial methionine) (N); made in house; host or cells: E. coli BL21(DE3) plysE
T1 sequence (C7QJ42 1-358): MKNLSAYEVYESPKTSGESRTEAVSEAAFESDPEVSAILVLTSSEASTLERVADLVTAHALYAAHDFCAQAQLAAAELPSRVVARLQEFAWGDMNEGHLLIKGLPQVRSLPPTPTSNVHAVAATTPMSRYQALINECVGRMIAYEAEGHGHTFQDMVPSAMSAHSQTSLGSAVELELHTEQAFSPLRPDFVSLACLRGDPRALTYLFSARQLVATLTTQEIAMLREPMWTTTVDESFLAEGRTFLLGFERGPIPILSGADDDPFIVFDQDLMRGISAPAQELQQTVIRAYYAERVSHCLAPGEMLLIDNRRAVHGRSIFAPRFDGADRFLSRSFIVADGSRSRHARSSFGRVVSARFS
Put plainly: Enzymatic hydroxylation of L-lysine, 10 mL scale, conversion by HPLC (protocol A). Type of test: biochemical. The following applies: ENZ1 0.024 mg/mL, L-lysine 10 mM, α-ketoglutarate 15 mM, sodium ascorbate 2.5 mM, Fe(II) 1 mM, Hepes pH 7.50, room temperature, 18h. Here is the method:
(§1) Enzymatic reaction medium (0.2 µmole, leq.), borate buffer 0,2M pH 7.7 (80 µL) and Fmoc-Cl solution7.5 mM in acetone (100 µL, 0.75 µmole, 3.75 eq) were hand shaked in a closed 1.50 mL eppendorf for one minute. The aqueous layer was extracted with petroleum ether (3*1 mL) to eliminate excess of Fmoc-Cl. 70 µL of the aqueous phase were withdrawn, diluted with 70 µL of acetonitrile and injected into the HPLC. For substrates with two amine functions, 100 µL of Fmoc-Cl solution 15 mM were used.
(§2) Conditions for HPLC analysis: Atlantis® T3 (3 µm 4.5*150 mm) at 35°C with the gradient 50-86% eluent B (MeCN + 0.1% TFA) and eluent A (H2O + 0.1% TFA) in 20 min at 1 mL/min.
Enzymatic reaction was carried out in 250 mL glass erlenmeyer flask for a total volume of 4*10 mL. Water (4.8 mL), Hepes buffer 1M pH 7.50 (0.5 mL, 50 mM), L-lysine 50 mM (2 mL, 10 mM), α-ketoglutarate 150 mM (1 mL, 15 mM), sodium ascorbate 100 mM (0.25 mL, 2.5 mM), ammonium Iron(II) sulfate hexahydrate 10 mM (1 mL, 1 mM) were poured into the erlenmeyer flask. The reaction was started by the enzyme addition (0.53 mg/mL, 0.45 mL, final concentration 0.024 mg/mL). The reaction mixture was orbitally shaken (300 rpm) at room temperature for 18h. The conversion of L-lysine into 3-hydroxy-L-lysine (94%) was determined by HPLC after derivatization with Fmoc-Cl according to protocol A.

Test [2] concerns the target T2, ENZ2 SEQ ID NO:2 (Flavobacterium johnsoniae, UniProt A5FF23).
T2 construct: His6 (hexahistidine, inserted after the initial methionine) (N); made in house; host or cells: E. coli BL21(DE3) plysE
T2 sequence (A5FF23 1-370): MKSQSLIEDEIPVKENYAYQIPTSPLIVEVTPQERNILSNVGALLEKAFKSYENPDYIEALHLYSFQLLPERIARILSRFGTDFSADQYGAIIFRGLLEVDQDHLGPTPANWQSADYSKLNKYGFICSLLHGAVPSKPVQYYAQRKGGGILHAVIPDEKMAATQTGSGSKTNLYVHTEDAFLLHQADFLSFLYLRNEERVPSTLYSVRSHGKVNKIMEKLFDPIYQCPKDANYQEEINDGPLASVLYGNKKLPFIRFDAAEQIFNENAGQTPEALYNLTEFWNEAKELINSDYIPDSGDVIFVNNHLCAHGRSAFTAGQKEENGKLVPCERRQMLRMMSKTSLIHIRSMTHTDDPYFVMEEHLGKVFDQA
Type of test: biochemical. The conditions noted are these: enzyme 0.08 mg/mL, molar ratio α-ketoglutarate/substrate 15/10, Hepes buffer 50 mM pH 7,5, Mohr's salt 1mM, without sodium ascorbate, room temperature, three hours. The protocol:
as §1, §2
(§3) Enzymes (0.08 mg/mL) were screened against substrates (molar ratio α-ketoglutarate/substrate 15/10) in Hepes buffer 50 mM pH 7,5, with Mohr's salt at 1mM and without sodium ascorbate, at room temperature for three hours. The potential conversions of the substrates were determined by HPLC after Fmoc-Cl derivatization as section III here above.

Test [3] addresses T3, ENZ3 SEQ ID NO:3 (Chitinophaga pinensis, UniProt C7PLM6).
T3 construct: His6 (hexahistidine, inserted after the initial methionine) (N); made in house; host or cells: E. coli BL21(DE3) plysE
T3 sequence (C7PLM6 1-382): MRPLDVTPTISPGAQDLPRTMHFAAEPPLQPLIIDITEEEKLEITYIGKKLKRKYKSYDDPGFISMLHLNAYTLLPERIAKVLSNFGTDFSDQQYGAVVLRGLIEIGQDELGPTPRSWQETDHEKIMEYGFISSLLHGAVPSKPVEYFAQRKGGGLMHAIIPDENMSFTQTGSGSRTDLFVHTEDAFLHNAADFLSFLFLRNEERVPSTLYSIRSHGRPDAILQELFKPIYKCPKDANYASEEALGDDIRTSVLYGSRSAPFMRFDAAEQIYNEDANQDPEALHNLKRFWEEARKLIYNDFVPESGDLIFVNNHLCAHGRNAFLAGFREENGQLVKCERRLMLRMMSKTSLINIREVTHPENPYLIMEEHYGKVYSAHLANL
Type of test: biochemical. The conditions noted are these: enzyme 0.08 mg/mL, molar ratio α-ketoglutarate/substrate 15/10, Hepes buffer 50 mM pH 7,5, Mohr's salt 1mM, without sodium ascorbate, room temperature, three hours. The protocol: as §1, §2, §3

In test [4] the test system is ENZ1 (SEQ ID NO:1) and ENZ2 (SEQ ID NO:2). Put plainly: Cascade dihydroxylation of L-lysine, conversion by HPLC (protocol A). The following applies: ENZ1 0.13 mg/mL 3h, then ENZ2 added, 18 h, room temperature. The test is classed as biochemical, Catenulispora acidiphila; Flavobacterium johnsoniae. The protocol: as §1, §2
Enzymatic reaction was carried out in 250 mL glass erlenmeyer flask for a total volume of 4*10 mL. Water (5.6 mL), Hepes buffer 1M pH 7.50 (0.5 mL, 50 mM), L-lysine […] (1 mL, 10 mM), α-ketoglutarate 150 mM (1 mL, 15 mM), sodium ascorbate 100 mM (0.25 mL, 2,5 mM), ammonium Iron(II) sulfate hexahydrate 10 mM (1 mL, 1 mM) were poured into the erlenmeyer. The reaction was started by ENZ1 addition (1.99 mg/mL, 0.65 mL, final concentration 0.13 mg/mL). […] The conversion (90%) was determined by HPLC after derivatization with Fmoc-Cl according to protocol A. The assembled reaction mixtures were acidified with 200 µL of TFA then centrifuged. […]

For `NCCCC[C@H](N)C(=O)O` [L-lysine], in test [1], the “conversion of L-lysine into 3-hydroxy-L-lysine” value is recorded as 94%. Moreover, the “potential conversions of the substrates, ENZ2 SEQ ID NO:2” value in test [2] is listed as “positive”. Moreover, in test [3], the “potential conversions of the substrates, ENZ3 SEQ ID NO:3” value was “positive”. In addition, in test [4], the “conversion (L-lysine dihydroxylation to 3,4-di-hydroxy-L-lysine)” value worked out at 90%.
